Measured values from patent US20240408175A1, “BMP9 OR AN AGONIST THEREOF AND ITS USES RELATED TO REDUCING METASTASIS OF CANCER” (THE UAB RESEARCH FOUNDATION, priority 2021, published 2024).

Legend:
SOX2 = SOX2 expression by Western blot / qRT-PCR in cancer cells; type: cell-based, human
Description: (§1) Lysate and RNA preparation: 100,000-300,000 cells were seeded in a poly-HEMA coated 6-well plate for indicated times in full serum unless indicated otherwise. Cells were collected by centrifugation and lysed with trizol for RNA extraction or direct 2× lysis buffer for protein lysates.
Xenograft data were analyzed using parametric statistics as described in the legends. Survival curves were analyzed with log-rank statistics. In vitro experiments were analyzed using parametric statistics (ANOVA global test with Dunnett's/Sidak multiple comparison test as post-hoc tests as applicable and described in legend) and presented as the mean±SEM. All real time PCR's are relative semi quantitative RT-PCR's (hereby referred to as qRT-PCR) and are a combined quantitation of a minimum of 3 independent biological trials assayed in triplicate with biological replicates represented as individual scatter dots in the graphs or as indicated in legends. In all cases, statistical significance was set at a threshold of p<0.05. All statistical analyses were conducted with GraphPad Prism Software Ver. 9.0 and specific statistical test information described in figure legends.

PA1-luc-GFP cells = experiment: PA1-luc-GFP intraperitoneal xenograft; type: in vivo, NOD-SCID mice
Description: (§2) All animal studies were performed in accordance with the Institutional Animal Care and Use Committee at the University of Alabama Birmingham. Female SCID mice (Key resources table) at 5-7 weeks of age were housed under pathogen-free conditions at the Animal Research Facility at UAB. 1.5×10^6 GFP-luciferase SK-OV3 cells or 3×10^6 GFP-luciferase expressing PA1 cells were intraperitoneally injected. Mice were monitored daily, with girth and weight measurement taken twice a week. Tumor progression was tracked weekly using the IVIS Lumina III In vivo Imaging System (Caliper Life Sciences, MA) at UAB's Small Animal Imaging Facility. rhBMP9 was administered at the time of tumor cell injection followed by daily intraperitoneal (i.p.) injections of 1 mg/mL in 4 mM HCl+PBS+DI water (Vehicle), to achieve a final 5 mg/kg dose. For metastasis and tumor growth analysis, mice were euthanized between 21-50 days depending on the cell line. At necropsy, ascites, if present, were collected and volumes measured when possible, tumor weights in the omentum and other organs were recorded and collected when possible. For survival studies, mice that reached end-point criteria, including continued weight loss, respiratory trouble and permanent recumbency were euthanized. For microscopic analysis of tissues, formalin-fixed tissues were processed, paraffin-embedded, and sectioned at 5 μm thickness and H&E stained at UAB's histology core.
(§3) IHC was performed using the BioCare Mach4 Universal Detection Kit. Specifically, anti-SOX2 was diluted in Da Vinci Green Diluent and incubated overnight at 4° C. in a humidified chamber. HRP was detected with 3,30-diaminobenzidine (DAB) substrate for 4 minutes. TUNEL staining was performed according to the manufacturer's instruction. Slides were examined and images captured with EVOS M7000 microscope. Cell profiler (Stirling et al., 2021) and Image J Fiji software were used for image quantification.

PA1 cells [1] = experiment: Microarray transcription profile under anchorage independence; type: cell-based, human; conditions: 24 h, 2-fold change criterion
Description: as §1
Total cellular RNA was extracted using Trizol reagent according to the manufacturer's protocol. RNA quality was determined using an Agilent 2100 Bioanalyzer and an RNA 6000 Nano kit (Agilent, Cat. No. 5067-1511) with RNA integrity numbers (RIN) ranging from 9.8 to 10. Microarray analyses were performed on the GeneChip™ Human Gene 2.0 ST ArrayS (Thermo Fisher Scientific, Cat. No. 902112) by the functional genomic core at University of South Carolina. Data were imported into the Affymetrix GeneChip Expression Console 1.4.1.46 and processed at the gene-level using the Robust Multichip Analysis (RMA) algorithm to generate CHP files. Experimental-group specific transcriptional responses were determined using unpaired one-way between-subject analysis of variance (ANOVA). Differentially expressed genes with p-values smaller than 0.05 and fold change higher than 2.0 and lower than −2.0 were used for further bioinformatics analysis.

SKOV3-luc-GFP cells = experiment: SKOV3-luc-GFP intraperitoneal xenograft; type: in vivo, NOD-SCID mice
Description: as §2, §3

PA1 cells [2] = experiment: Sulforhodamine B (SRB) growth assay, attached 2D; type: cell-based, human; conditions: 10 nM, 3 days
Description: Growth of cells was monitored by seeding 1,000 cells per well in a 96 well plate, followed by treatment with 10 nM BMP2/9 for indicated times. At endpoint, medium was shaken out from plates, followed by addition of cold 10% trichloroacetic acid in each well, and incubation at 4° C. for 10 minutes. Five sequential wash steps were performed by complete immersion in water and shake out of the water from the plate. Next, 0.4% sulforhodamine B (SRB) in 1% acetic acid was added to each well and incubated at room temperature for 10 minutes. Five washed were done by complete immersion in 1% acetic acid followed by complete removal of the remaining wash. Plates were air dried overnight. Finally, 200 mL of 20 mM Tris pH 10 (unbuffered) was added to each well and plate rocked on a rotary shaker for 1-2 hours and absorbance measured at 570 nm with a plate reader (Vichai and Kirtikara, 2006).

[3] = ELISA of BMP9 in plasma from mice; type: in vivo; conditions: PA1-luc-GFP mice, daily i.p. administration
[4] = tested on: 1-kb SOX2 promoter reporter; experiment: pGL3-SOX2 promoter-reporter luciferase assay in HEK293 cells; type: cell-based, human; conditions: 10 nM, 24 hours, serum-free
Description: HEK293 cells were transfected with the pGL3-SOX2 promoter-luciferase reporter plasmid construct and SV40-renilla for 24h. […] According to the manufacturer's instruction, cells were collected and lysed in […] passive lysis buffer. To measure luciferase activity, […] of lysate was added to […] of dual Luciferase Assay Reagent, and luminescence was quantitated using a luminometer (Biotek).

A2780CP cells = experiment: Cell survival under anchorage independence, A2780CP; type: cell-based, human; conditions: dose and time course
Description: (§4) For Live/Dead analysis under anchorage independence, 1,000 cells were seeded in 96-well hydrogel-coated ultra-low attachment (ULA) plates (Corning #4515) for times indicated. Growth factor treatment was done under low serum 2.5% FBS condition (Cells were plated in 10% FBS to allow spheroid formation before beginning treatment). Cells were then stained with 2 μM Calcein-AM and 4 μM Ethidium-homodimer for 30 min before imaging. z-stacked images were obtained using the Zeiss LSM700 Confocal microscope (Microscopy and Flow Cytometry Core, University of South Carolina) and NIKON A1 Confocal microscope (UAB High Resolution Imaging Facility). Fluorescent quantification was performed using ImageJ Fiji software to calculate the Corrected Total Cell Fluorescent (CTCF)=Integrated Density−(Area of selected cell×Mean fluorescence of background readings) per spheroid.

HEYT30 cells = experiment: Cell survival under anchorage independence, HEYT30; type: cell-based, human
Description: as §4

For “BMP9: recombinant human bone morphogenetic protein 9 (BMP9/GDF2), TGF-β family ligand”, the “SOX2 expression in other cancer types” value (SOX2; A549, BON-1, H727 cells, 24 hours) was “downregulated”, the “SOX2 in patient ascites-derived tumor cells” value (SOX2; EOC15 and AF68, anchorage-independent, 48 hours) was “downregulated” and the “anchorage-independence-induced increases in SOX2” value (SOX2; OVCAR4, OVCA420, OVCA433 cells, 3D) was “effectively suppressed”. For the same substance, the “dose-response of SOX2 protein” value (SOX2; PA1 and OVCAR3, indicated doses, 24 h) was “dose-dependent repression”, the “SOX2 by qRT-PCR in anchorage-independent conditions” value (SOX2; PA1 cells, 3D, 24 hrs) was “downregulation” and the “reduction in SOX2 expression under attached growth conditions” value (SOX2; several cell lines incl. OVCAR3 and SKOV3, 10 nM, 24 hours) was “significant”. For the same substance, the omental tumor burden (PA1-luc-GFP cells; 5 mg/kg i.p. daily, 7-week study, vs vehicle) was “significantly lower”, the “overall i.p. tumor burden over time by bioluminescence imaging” value (PA1-luc-GFP cells; 5 mg/kg i.p. daily, vs vehicle) was “significant reduction” and the “infiltrated tumor cells in omental tumors (histology)” value (PA1-luc-GFP cells; vs vehicle) was “significantly fewer”. For the same substance, the “increase in TUNEL-positive cells in tumors” value (PA1-luc-GFP cells; vs vehicle-treated mice) was “a factor of two increase”, the downregulated genes (PA1 cells [1]) was 210 and the upregulated genes (PA1 cells [1]) was 333. The differentially expressed genes (PA1 cells [1]; p<0.05) was 543, the “mice with detectable ascites” value (SKOV3-luc-GFP cells; 5 mg/kg i.p. daily) was “none” and the “intraperitoneal tumor growth by BLI in the abdomen” value (SKOV3-luc-GFP cells; 5 mg/kg i.p. daily, day 16, vs vehicle) was “significantly lower”. The “infiltrated tumor cells in omental tumors (histology)” value (SKOV3-luc-GFP cells; vs vehicle) was “significantly fewer”, the “increase in TUNEL-positive cells in tumors” value (SKOV3-luc-GFP cells; vs vehicle-treated mice) was 143 and the cell growth (PA1 cells [2]) was “did not alter”. The “BMP9 in plasma (ELISA)” value [3] was “elevated”, the “luciferase activity of SOX2 promoter reporter” value [4] was “significantly reduce” and the “decrease in percentage live cells” value (A2780CP cells) was 25-55%. The “reduction in percentage live cells” value (HEYT30 cells; 10 nM) was 63% and the “reduction in percentage live cells” value (HEYT30 cells; 1 and 5 nM) was “about 35%”.
